Series [1] relates to NHBE cells. Nature of the series: ROS-Glo H2O2 assay (non-lytic) in NHBE cells. It is filed as cell-based, human. On the procedure:
• 1. A tissues sample is treated basolaterally in medium containing 25 μM ROS-GloTM H2O2 substrate for the desired exposure duration. • Treatment duration is not longer than 6 hours due to instability of the substrate. • 2. After treatment, 75 μL of the medium is collected for the ROS endpoint (see example 3), and the remaining cell or tissue sample transferred to new 24-well plate for the GSH/GSSG endpoint. ROS samples are stored at 4° C. for a maximum total of 6 hours taking into account the treatment duration, while GSH/GSSG samples must be processed immediately. This Specific Example is Based on Non-Lytic Variant of ROS-GloTM H2O2 Assay Kit Catalogue #[…] and Described in Technical Manual TM391 from Promega. • (a) 75 μL of sample medium collected in Example 1, step 2, and 75 μL of compound interference controls are added to an assay plate. • (b) 10 wells, 100 μL per well are added to the assay plate for standard curve calibration. • (c) 75 μL of freshly prepared ROS-Glo Detection SolutionTM is added to all samples and compound interference control wells. D-cysteine is added on top if not present in reagents, preferably 0.01 to 20 mM, preferably 0.1 to 10 mM. • (d) 100 μL of ROS-Glo Detection SolutionTM is added to standard curve wells. • (e) The assay plate is shaken for 1 minute at room temperature on a plate shaker set at 300 rpm. • (f) The plate is incubated for 20 minutes standing at room temperature. • (g) Luminescence is measured with FLUOstar® Omega using the pre-defined “ROS-GloTM H2O2 assay”. In this example oxidative stress was simulated by adding menadione sodium bisulfite to four samples. Four of the samples had 10 μM, 30 μM, 100 μM or 300 μM of menadione sodium bisulfite respectively added to the medium to simulate increasing levels of oxidative stress. The fifth sample was used as the vehicle control wherein on the medium and 0.3% water were added. The assays were performed in triplicate on NHBE cells. In the top row of FIG. 9, the same experiments of the invention as per Example 6 (shown top row of FIG. 8) were carried out. […]

For series [2], the system named is 3D bronchial cultures. Briefly: Modified GSH/GSSG-Glo assay in 3D bronchial cultures. It is filed as cell-based, human. On the procedure:
(§1) • 1. A tissues sample is treated basolaterally in medium containing 25 μM ROS-Glo™ H2O2 substrate for the desired exposure duration. • Treatment duration is not longer than 6 hours due to instability of the substrate. • 2. After treatment, 75 μL of the medium is collected for the ROS endpoint (see example 3), and the remaining cell or tissue sample transferred to new 24-well plate for the GSH/GSSG endpoint. ROS samples are stored at 4° C. for a maximum total of 6 hours taking into account the treatment duration, while GSH/GSSG samples must be processed immediately.
This Specific Example Based on GSH/GSSG-Glo™ Assay Kit Catalogue #V6611 and V6612 and Described in Technical Manual #TM344 from Promega • (A) Starting with the cell or tissue sample from point 2 of Example 1, the cell supernatant is removed. • (B) 100 μL of cold Passive lysis buffer is 1× diluted in water is added per well, to tissue/cell samples and shaken for 5 min at 300 rpm on ice. • (C) 100 μL of lysate is placed into 2 wells containing 50 μL each. • (D) In one well 1 μL of Luciferin-NT is added for quantification of total GSH. • (E) In the other well, 1 μL of Luciferin-NT and 0.5 μL of N-Ethylmaleimide (NEM) at 25 mM is added for quantification of oxidized GSSG. • (F) Both wells are incubated for 5 min shaking at 300 rpm at room temperature. • (G) 50 μL of Luciferin Generation Reagent is added per well, and both wells shaken for 1 min. • (H) Both wells are incubated for 29 min standing at room temperature. • (I) 100 μL of Luciferin detection reagent is added to both wells and they are shaken for 1 min. • (J) Both wells are incubated for 14 min. • (K) Both wells are transferred to an assay plate containing a calibration curve (suitably prepared as in the supplier's protocol). • (L) The luminescence of each well is measured with FLUOstar® Omega “GSHG assay”
(§2) A 3D bronchial culture can be provided by isolating bronchial cells or using commercially available primary cells, culturing them and seeding them on a 3D framework. Suitable cultures include MucilAir™. MucilAir™ is an in vitro cell model of the human airway eplithelium cultures at the air liquid interface and available from Epithelix (for example, here https://www.epithelix.com/products/mucilair).
(§3) FIG. 11 is a further schematic showing how GSH/GSSG and ROS assays (as detailed in Example 4 and Example 5 above) can be adapted to 3D bronchial cultures. In this experiment, three 3D cultures were used. […] The GSH/GSSG-Glo assays were performed on samples from the cell culture within the culture insert and the ROS-Glo assays were performed on the basolateral medium. This was performed in triplicate.

The test system of series [3] is NHBE cells. Briefly: Modified GSH/GSSG-Glo assay in NHBE cells. The format is cell-based, human. The procedure:
• 1. A tissues sample is treated basolaterally in medium containing 25 μM ROS-GloTM H2O2 substrate for the desired exposure duration. • Treatment duration is not longer than 6 hours due to instability of the substrate. • 2. After treatment, 75 μL of the medium is collected for the ROS endpoint (see example 3), and the remaining cell or tissue sample transferred to new 24-well plate for the GSH/GSSG endpoint. ROS samples are stored at 4° C. for a maximum total of 6 hours taking into account the treatment duration, while GSH/GSSG samples must be processed immediately. This Specific Example Based on GSH/GSSG-GloTM Assay Kit Catalogue #[…] and Described in Technical Manual #TM344 from Promega • (A) Starting with the cell or tissue sample from point 2 of Example 1, the cell supernatant is removed. • (B) 100 μL of cold Passive lysis buffer is 1× diluted in water is added per well, to tissue/cell samples and shaken for 5 min at 300 rpm on ice. • (C) 100 μL of lysate is placed into 2 wells containing 50 μL each. • (D) In one well 1 μL of Luciferin-NT is added for quantification of total GSH. • (E) In the other well, 1 μL of Luciferin-NT and 0.5 μL of N-Ethylmaleimide (NEM) at 25 mM is added for quantification of oxidized GSSG. • (F) Both wells are incubated for 5 min shaking at 300 rpm at room temperature. • (G) 50 μL of Luciferin Generation Reagent is added per well, and both wells shaken for 1 min. • (H) Both wells are incubated for 29 min standing at room temperature. • (I) 100 μL of Luciferin detection reagent is added to both wells and they are shaken for 1 min. • (J) Both wells are incubated for 14 min. • (K) Both wells are transferred to an assay plate containing a calibration curve (suitably prepared as in the supplier's protocol). • (L) The luminescence of each well is measured with FLUOstar® Omega “GSHG assay” In this example oxidative stress was simulated by adding menadione sodium bisulfite to four samples. Four of the samples had 10 μM, 30 μM, 100 μM or 300 μM of menadione sodium bisulfite respectively added to the medium to simulate increasing levels of oxidative stress. The fifth sample was used as the vehicle control wherein on the medium and 0.3% water were added. The assays were performed in triplicate on NHBE cells. In the top row of FIG. 9, the same experiments of the invention as per Example 6 (shown top row of FIG. 8) were carried out. In addition, the ROS endpoint analysis method of the invention (as per Example 5 above) was carried out on the same samples at the 1 hour and 2 hour time points (shown in FIG. 9, bottom row). A star (*) indicates significance P<0.05 paired t-test. Two stars (**) indicates significance P<0.01 paired t-test. The cells used where an NHBE cell line exposed to water-soluble menadione sodium bisulfite.

For series [4], the system named is 3D bronchial cultures. Briefly: ROS-Glo H2O2 assay on basolateral medium of 3D bronchial cultures. It is filed as cell-based, human. The procedure:
as §1
(§4) This Specific Example is Based on Non-Lytic Variant of ROS-Glo™ H2O2 Assay Kit Catalogue #G8820 and G8821 and Described in Technical Manual TM391 from Promega. • (a) 75 μL of sample medium collected in Example 1, step 2, and 75 μL of compound interference controls are added to an assay plate. • (b) 10 wells, 100 μL per well are added to the assay plate for standard curve calibration. • (c) 75 μL of freshly prepared ROS-Glo Detection Solution™ is added to all samples and compound interference control wells.
as §2, §3

In a further series the test system is HeLa. The settings on record: HeLa, 5,000 cells/well, menadione-treated; cited from earlier work.
Series [5] deals with 3D bronchial cultures. Nature of the series: Cell viability in 3D bronchial cultures. The note with it: lipid-soluble menadione. It is filed as cell-based, human.
The next series has as its system A549. The note with it: A549, 5,000 cells/well, menadione-treated; cited from earlier work.
For the next series, the system named is Rat hepatocytes. The note with it: Rat hepatocytes, 50,000 cells/well, menadione-treated; cited from earlier work.
Series [6] concerns A549 lung cell line. Nature of the series: Cell viability in A549 lung cell line. It is filed as cell-based, human. The settings on record: A549, two highest concentrations.
Series [7] deals with A549 lung cell line. Briefly: ROS-Glo H2O2 assay in A549 lung cell line. It is filed as cell-based, human. The settings on record: A549, dose-dependent. The procedure: as §4
In this experiment, an A549 lung cell line was exposed to lipid-soluble menadione (Vitamin K3) to simulate oxidative stress.

In series [8] the test system is NHBE cells. Nature of the series: Cell viability / cytotoxicity (ATP levels) in NHBE cells. The format is cell-based, human.
The subject of a further series is HepaRG ®. The note with it: HepaRG, 50,000 cells/well, menadione-treated; cited from earlier work.
The test system of series [9] is A549 lung cell line. Nature of the series: GSH/GSSG assay in A549 lung cell line. It is filed as cell-based, human. The note with it: A549, dose-dependent. On the procedure:
This Specific Example Based on GSH/GSSG-Glo™ Assay Kit Catalogue #V6611 and V6612 and Described in Technical Manual #TM344 from Promega • (A) Starting with the cell or tissue sample from point 2 of Example 1, the cell supernatant is removed. • (B) 100 μL of cold Passive lysis buffer is 1× diluted in water is added per well, to tissue/cell samples and shaken for 5 min at 300 rpm on ice. • (C) 100 μL of lysate is placed into 2 wells containing 50 μL each. • (D) In one well 1 μL of Luciferin-NT is added for quantification of total GSH. • (E) In the other well, 1 μL of Luciferin-NT and 0.5 μL of N-Ethylmaleimide (NEM) at 25 mM is added for quantification of oxidized GSSG. • (F) Both wells are incubated for 5 min shaking at 300 rpm at room temperature. • (G) 50 μL of Luciferin Generation Reagent is added per well, and both wells shaken for 1 min. • (H) Both wells are incubated for 29 min standing at room temperature. • (I) 100 μL of Luciferin detection reagent is added to both wells and they are shaken for 1 min. • (J) Both wells are incubated for 14 min. • (K) Both wells are transferred to an assay plate containing a calibration curve (suitably prepared as in the supplier's protocol). • (L) The luminescence of each well is measured with FLUOstar® Omega “GSHG assay” […]

The next series relates to HepG2. The settings on record: HepG2, 10,000 cells/well, menadione-treated; cited from earlier work.
Where [10] appears, read: 30 µM, 1 hour and 2 hour time points.
Setting [11] is: higher dose (300 μM) versus lower dose, 3D bronchial culture.
Setting [12] is: higher dose (300 μM), 3D bronchial culture.
Setting [13] is: lower dose (100 μM), 3D bronchial culture.
Where [14] appears, read: 3D bronchial cultures, lipid-soluble menadione, dose-dependent.

For the molecule `CC1(S(=O)(=O)[O-])CC(=O)c2ccccc2C1=O.[Na+]` (stereo not shown) [Menadione sodium bisulfite, menadione sodium bisulfite], the ROS entry with NHBE cells [1] (setting [10]) was “increased ROS”; in the series with 3D bronchial cultures [4] (setting [11]), “no further impact”; in the series with 3D bronchial cultures [4] (setting [13]), “significantly increased ROS”. The GSSG result in the series on 3D bronchial cultures [2] (setting [11]) is reported as “no further impact”. In addition, the GSH result in the series with 3D bronchial cultures [2] (setting [12]) is “further decreased”. Besides, the GSH/GSSG result is on record as “further decreased” with 3D bronchial cultures [2] (setting [12]), “no effect on GSH/GSSG” with 3D bronchial cultures [2] (setting [13]) and “no changes in GSH/GSSG” in the series with NHBE cells [3] (setting [10]).
As for `CC1=CC(=O)c2ccccc2C1=O` [Menadione], the “Ratio GSH/GSSG” value in the series on HeLa was 2.2; in the series with A549 it was 10.9; with Rat hepatocytes, 1.1; in the series on HepaRG ®, 2.5; in the series with HepG2, 2.2. Further, the results for the cell viability entry in the series on 3D bronchial cultures [5], in the series on A549 lung cell line [6] and in the series on NHBE cells [8] (300 μM (highest dose)) were “no effects on cell viability”, “effects on cell viability at the two highest concentrations” and “decreased cell viability”, respectively. For the same molecule, the ROS result with NHBE cells [1] (100 μM) was “increased ROS”; in the series on NHBE cells [1] (300 μM (highest dose)) it was “highest ROS”; in the series with A549 lung cell line [7] it was “increase in ROS”; in the series on 3D bronchial cultures [4] (setting [14]) it was “increase”. For the same molecule, in the series with NHBE cells [8] (2 hour versus 1 hour time point), the “oxidative stress and cytotoxicity (as determined by ATP levels) with longer exposure” value is “more oxidative stress and cytotoxicity”. In the series on 3D bronchial cultures [2] (setting [14]), the GSH result is on record as “dose-dependent decrease”. Moreover, the GSH/GSSG entry in the series on 3D bronchial cultures [2] (setting [14]) is “dose-dependent decrease”; with NHBE cells [3] (100 μM) it was “decreased GSH/GSSG”; in the series on NHBE cells [3] (300 μM (highest dose)), “lowest GSH/GSSG”; in the series on A549 lung cell line [9], “decrease in GSH/GSSG”. In addition, the GSSG result with 3D bronchial cultures [2] (setting [14]) is “increase”. Also, the GSH/GSSG reduction with NHBE cells [3] (300 μM (highest dose)) is 6 fold.

Source of the values: patent US20260243781A1, “METHOD” (Philip Morris Products S.A., priority 2023, published 2026).
